Laboratory results: PubChem BioAssay (NCI)
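Compound exposure: 48 hours, 5 concentrations, 96-well plates. At the TGI there is no net growth.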

Experiments:
Test in all cases: DTP human tumour cell line panel, 48 h
[1] = tested on: ACHN renal
[2] = tested on: CAKI-1 renal
[3] = tested on: IGROV1 ovarian
[4] = tested on: K-562 leukemia
[5] = tested on: M14 melanoma
[6] = tested on: MALME-3M melanoma
[7] = tested on: MDA-MB-435
[8] = tested on: MOLT-4 leukemia
[9] = tested on: NCI-H226 lung
[10] = tested on: NCI-H460 lung
[11] = tested on: OVCAR-5 ovarian
[12] = tested on: SK-MEL-28 melanoma
[13] = tested on: SN12C renal
[14] = tested on: SNB-19 CNS
[15] = tested on: SNB-75 CNS
[16] = tested on: U251 CNS
[17] = tested on: UACC-62 melanoma
[18] = tested on: BT-549 breast
[19] = tested on: COLO 205 colon
[20] = tested on: RPMI-8226 leukemia

Measured: TGI

CC(=O)Oc1ccn2nc(C)c(Cc3c(C)nn4ccc(OC(C)=O)cc34)c2c1
50.4 µM: [7]
not listed: [18] | [19] | [20]
> 100 µM: all other assays above

Nc1nc(N)nc(-c2cnc3ccccc3c2)n1
not listed: [20]
> 100 µM: all other assays above

CC(=O)NC(ON1C(=O)COc2ccccc21)C(Cl)(Cl)Cl (centres undefined)
88.1 µM: [9]
not listed: [7] | [18]
> 100 µM: all other assays above

CC(=O)OC[C@@]12CC[C@H]3C(C)(C)CCC[C@]3(C)[C@H]1C[C@@H](C1=CC(=O)O[C@H]1O)O2
37.2 µM: [14]
6.23 µM: [8]
5.78 µM: [3]
29 µM: [10]
4.74 µM: [17]
4.6 µM: [7]
7.65 µM: [5]
12.4 µM: [13]
3.56 µM: [4]
7.27 µM: [20]
4.36 µM: [12]
37.8 µM: [11]
5.12 µM: [1]
5.21 µM: [2]
10.4 µM: [19]

O=C1OC(C2Cc3cc4c(cc3C2=O)CCC4)c2ccccc21 (centres undefined)
58.6 µM: [9]
64.4 µM: [8]
not listed: [18]
> 100 µM: all other assays above

NC(=O)ON=C1CCN(Cc2ccccc2)CC1
not listed: [18]
> 100 µM: all other assays above

CSc1sc(C)cc1-c1nsc(=O)o1
not listed: [9] | [15] | [18]
> 100 µM: all other assays above

CCOC(=O)CSc1[nH]c2nc(C)nc(Cl)c2c1C#N
not listed: [1] | [9] | [10] | [11] | [14] | [16] | [18]
> 10 µM: all other assays above

COC(=O)C(C(=O)C(=O)Nc1c(Cl)cc([N+](=O)[O-])cc1Cl)c1nc2cc(C)c(C)cc2[nH]c1=O (centres undefined)
not listed: [7] | [12] | [18]
> 100 µM: all other assays above

Fc1ccc(C2(CCCN3CCc4[nH]c5cc(F)ccc5c4C3)OCCO2)cc1
7.15 µM: [5]
23.5 µM: [1]
25.1 µM: [15]
38.6 µM: [9]
21.9 µM: [8]
28.1 µM: [20] | [16]
26.5 µM: [7]
26.7 µM: [17]
23.3 µM: [14]
20.5 µM: [11]
24.1 µM: [19] | [10]
18.3 µM: [4]
25.6 µM: [12]
35.4 µM: [3]
31.6 µM: [13]
25.9 µM: [6]

CC(=O)N(/N=C\c1ccc([N+](=O)[O-])cc1)c1ccccc1
not listed: [7] | [8] | [18]
> 100 µM: all other assays above

Cc1ccc(/C=C/C(=O)c2sc(C(N)=S)nc2C)cc1
not listed: [5] | [7] | [14] | [18]
> 100 µM: all other assays above

CSc1nc2nc(C)c(C)nc2c(=O)[nH]1
not listed: [7] | [9] | [18]
> 100 µM: all other assays above

C/C(=C/CNc1ncnc2c1ncn2CCC(=O)O)CO
not listed: [16] | [18]
> 100 µM: all other assays above

C=CC1(c2ccc(Cl)c(Cl)c2)OCCO1
55.2 µM: [15]
not listed: [2] | [18]
> 100 µM: all other assays above

CN(C)C(=O)c1nnsc1NN=O
not listed: [18]
> 100 µM: all other assays above

CC(C)CC(=O)N1CCN(C(=O)CC(C)C)c2ccccc21
not listed: [2] | [5] | [7] | [9] | [13] | [17] | [18]
> 100 µM: all other assays above

COC(=O)C(CCC1(C)OCCO1)C(C)=O (centres undefined)
not listed: [2] | [7] | [17] | [18] | [20]
> 100 µM: all other assays above

Cc1cc(=O)cc2sc3cc(Cl)ccc3nc1-2
35.4 µM: [10]
15.7 µM: [15]
52 µM: [3]
> 100 µM: [20]
69.2 µM: [12]
30.6 µM: [1]
33.9 µM: [16]
50.3 µM: [13]
46.7 µM: [2]
20.9 µM: [17]
43.7 µM: [11]
20.6 µM: [4]
39.7 µM: [6]
53.7 µM: [19]
65.6 µM: [9]
33.3 µM: [5]
61.9 µM: [14]
> 60.8 µM: [8]

C/C(Sc1ccccc1)=C1/CCCN(Cc2ccccc2)C1
83 µM: [12]
47.6 µM: [17]
96.1 µM: [10]
41.6 µM: [9]
38.6 µM: [4]
86.3 µM: [15]
67.5 µM: [11]
> 100 µM: [1] | [2] | [3] | [14]
43.3 µM: [20]
32.9 µM: [19]
57.8 µM: [16]
39.4 µM: [8]
28.6 µM: [6]
35 µM: [5]
87.7 µM: [7]

Cn1c(=O)c2c(ncn2CCCCn2ccnc2[N+](=O)[O-])n(C)c1=O
not listed: [2] | [7] | [18]
> 100 µM: all other assays above

C/C(=N\N=C(\N)OB(F)F)c1ccccn1
55.7 µM: [15]
not listed: [8] | [20]
> 100 µM: all other assays above

N#Cc1ccc(Nc2cnc3cc(N)ccc3n2)cc1
not listed: [3] | [7] | [18]
> 100 µM: all other assays above

COc1cc(O)c2c(=O)c3ccccc3n(C)c2c1
not listed: [14] | [15] | [20]
> 100 µM: all other assays above

CSc1nc(C)cc(N(C)c2ccccc2)n1
93.9 µM: [9]
53 µM: [7]
94.3 µM: [15]
not listed: [18]
> 100 µM: all other assays above

O=C1CCCCC1C1(O)C(=O)Nc2cc(F)ccc21 (centres undefined)
not listed: [7] | [18]
> 100 µM: all other assays above

CNC(=S)NNC(=O)c1c(C)nc2sccn12
not listed: [5] | [7] | [15] | [18] | [20]
> 100 µM: all other assays above

COC1=C(C)C(=O)C2C(C1=O)C(c1ccc(OC)c(OC)c1)[C@H]2C (some centres undefined)
not listed: [7] | [13] | [18]
> 100 µM: all other assays above
